Assay results taken from patent US8658661B2, “Oxadiazole inhibitors of leukotriene production” (Boehringer Ingelheim International GmbH, priority 2010, dated 2014).
Read-outs that look alike come from different tables or passages of the source.

What was measured:
[1] = tested on: synthesis of LTB4 in human whole blood; experiment: Human whole blood assay (inhibition of LTB4 synthesis, calcimycin stimulated); assay type: cell-based; conditions: heparinized human whole blood, calcimycin 20 μM, plasma LTB4
Description: Compounds are additionally tested in a human whole blood assay to determine their ability to inhibit the synthesis of LTB4 in a cellular system. Compounds are combined with heparinized human whole blood and incubated for 15 minutes at 37° C. Calcimycin (20 μM final, prepared in phosphate-buffered saline, pH 7.4) is then added and the mixture is incubated for another 30 minutes at 37° C. The samples are centrifuged for 5 min at low speed (1500×g) and the plasma layer is removed. Plasma LTB4 concentrations are then measured using an antibody-based homogenous time-resolved fluorescence method (CisBio, Bedford, Mass.).

[2] = target: T1, recombinant human FLAP protein (Homo sapiens, UniProt P20292); experiment: FLAP binding assay (SPA, displacement of [125I]L-691,831)
T1 construct: made in house; host or cells: Sf9 insect cells (100,000×g membrane pellet used)
T1 sequence (P20292 1-161): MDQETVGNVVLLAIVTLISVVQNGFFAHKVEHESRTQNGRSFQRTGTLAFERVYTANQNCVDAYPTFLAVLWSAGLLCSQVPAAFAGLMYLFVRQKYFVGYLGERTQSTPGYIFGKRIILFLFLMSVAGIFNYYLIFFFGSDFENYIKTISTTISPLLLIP
Description: Assessment of Biological Properties 1. Binding Assay
Compounds are assessed for the ability to bind to FLAP in a binding assay that measures compound-specific displacement of an iodinated (^125I) FLAP inhibitor via a Scintillation Proximity Assay format (adapted from S. Charleson et al., Mol. Pharmacol., 1992, 41, 873-879).
Cell pellets produced from sf9 insect cells expressing recombinant human FLAP protein are resuspended in buffer A [15 mM Tris-HCl (pH 7.5), 2 mM MgCl2, 0.3 mM EDTA, 1 mM PMSF]. The cells are lysed with a Dounce homogenizer and the material is centrifuged at 10,000×g for 10 minutes. The supernatant is then collected and centrifuged at 100,000×g for 60 minutes. To prepare membrane protein for an assay, an aliquot of the 100,000×g pellet is resuspended in 1 ml of buffer A, Dounce homogenized, and finally subjected to polytron mixing (30 seconds). Membrane protein (25 μl, 5 μg) is mixed with WGA SPA beads (Amersham) and stirred for 1 h. […] (final concentrations: beads, 200 μg/well; protein, 5 μg/well; [^125I] probe, 0 08 nM/well (17 nCi/well). The plates are shaken for 2 h before reading on a Microbeta plate reader. Non-specific binding is determined by the addition of 10 μM cold L-691,831 compound.

[3] = membranes of sf9 cells expressing recombinant human FLAP, [125I]L-691,831 probe, read-out: FLAP binding IC50

Compound	IC50 [1]	IC50 [2, 3]	IC50 [2]
CC(C)[C@](C)(c1ccc(-c2cnc(N)nc2)cc1)c1noc(-c2cnn(C)c2)n1 (single isomer, unassigned) [Example 46]	33 nM	–	1.6 nM
CC(C)[C@@](C)(c1ccc(-c2cnc(N)nc2)cc1)c1noc(-c2cnn(C)c2)n1 (single isomer, unassigned) [Example 47]	360 nM	–	7.7 nM
CN(C)C(=O)Cn1cc(-c2nc([C@@](C)(c3ccc(-c4cnc(N)nc4)cc3)C3CC3)no2)cn1 (single isomer, unassigned) [Example 115]	58 nM	1.9 nM	–
CC(C)[C@@](C)(c1ccc(-c2cnc(N)nc2)cc1)c1noc(N2CCC(O)CC2)n1 (single isomer, unassigned) [Example 224]	760 nM	–	–
COc1cncc(-c2ccc(C(C)(c3noc(-c4cnccn4)n3)C(C)C)cc2)c1 (stereo not shown) [Example 1, 2-(3-{2-[4-(5-methoxypyridin-3-yl)phenyl]-3-methylbutan-2-yl}-1,2,4-oxadiazol-5-yl)pyrazine]	–	57 nM	–
CC(C)C(C)(c1ccc(-c2cnc(N)nc2)cc1)c1noc(-c2cccnc2)n1 (stereo not shown) [Example 3, 5-(4-{3-methyl-2-[5-(pyridin-3-yl)-1,2,4-oxadiazol-3-yl]butan-2-yl}phenyl)pyrimidin-2-amine]	94 nM	1.7 nM	–
Cc1ccc(-c2nc(C(C)(c3ccc(-c4cnc(N)nc4)cc3)C(C)C)no2)cn1 (stereo not shown) [Example 4, 5-(4-{3-methyl-2-[5-(6-methylpyridin-3-yl)-1,2,4-oxadiazol-3-yl]butan-2-yl}phenyl)pyrimidin-2-amine]	310 nM	1.6 nM	–
Cc1ncccc1-c1nc(C(C)(c2ccc(-c3cnc(N)nc3)cc2)C(C)C)no1 (stereo not shown) [Example 5, 5-(4-{3-methyl-2-[5-(2-methylpyridin-3-yl)-1,2,4-oxadiazol-3-yl]butan-2-yl}phenyl)pyrimidin-2-amine]	150 nM	1.6 nM	–
COc1ccncc1-c1nc(C(C)(c2ccc(-c3cnc(N)nc3)cc2)C(C)C)no1 (stereo not shown) [Example 11, 5-(4-{2-[5-(4-methoxypyridin-3-yl)-1,2,4-oxadiazol-3-yl]-3-methylbutan-2-yl}phenyl)pyrimidin-2-amine]	89 nM	1.9 nM	–
CC(C)C(C)(c1ccc(-c2cnc(N)nc2)cc1)c1noc(-c2nccs2)n1 (stereo not shown) [Example 139, 5-(4-{3-methyl-2-[5-(1,3-thiazol-2-yl)-1,2,4-oxadiazol-3-yl]butan-2-yl}phenyl)pyrimidin-2-amine]	–	4.4 nM	–
CC(C)C(C)(c1ccc(-c2cnc(N)nc2)cc1)c1noc(-c2cnc(=O)[nH]c2)n1 (stereo not shown) [Example 154, 5-(3-{2-[4-(2-aminopyrimidin-5-yl)phenyl]-3-methylbutan-2-yl}-1,2,4-oxadiazol-5-yl)pyrimidin-2(1H)-one]	–	3.3 nM	–
CC(c1ccc(-c2cnc(N)nc2)cc1)(c1noc(N2CCC(O)CC2)n1)C1CC1 (stereo not shown) [Example 205, 1-(3-{1-[4-(2-Amino-pyrimidin-5-yl)-phenyl]-1-cyclopropyl-ethyl}-[1,2,4]oxadiazol-5-yl)-piperidin-4-ol]	68 nM	–	–
CC(C)C(C)(c1ccc(-c2cnc(N)nc2)cc1)c1noc(N2CCC(C)(O)CC2)n1 (stereo not shown) [Example 216, 1-(3-{1-[4-(2-Amino-pyrimidin-5-yl)-phenyl]-1,2-dimethyl-propyl}-[1,2,4]oxadiazol-5-yl)-4-methyl-piperidin-4-ol]	34 nM	–	–
CC(C)C(C)(c1ccc(-c2cnc(N)nc2)cc1)c1noc(N2CCC(O)CC2)n1 (stereo not shown) [Example 262, 1-(3-{1-[4-(2-Amino-pyrimidin-5-yl)-phenyl]-1,2-dimethyl-propyl}-[1,2,4]oxadiazol-5-yl)-piperidin-4-ol]	84 nM	–	–

The next lines start with results.

IC50 [1]	IC50 [2, 3]	Compound	IC50 [2]
79 nM	2.4 nM	CC(C)(CO)Nc1cnc(-c2nc([C@@](C)(c3ccc(-c4cnc(N)nc4)cc3)C3CC3)no2)cn1 (single isomer, unassigned) [Example 56]	–
150 nM	6.8 nM	CC(C)(CO)Nc1cnc(-c2nc([C@](C)(c3ccc(-c4cnc(N)nc4)cc3)C3CC3)no2)cn1 (single isomer, unassigned) [Example 57]	–
2000 nM	150 nM	CN(C)C(=O)Cn1cc(-c2nc([C@](C)(c3ccc(-c4cnc(N)nc4)cc3)C3CC3)no2)cn1 (single isomer, unassigned) [Example 116]	–
680 nM	5.1 nM	CC(C)C(C)(c1ccc(-c2cnc(N)nc2)cc1)c1noc(-c2ccccc2)n1 (stereo not shown) [Example 2, 5-{4-[3-methyl-2-(5-phenyl-1,2,4-oxadiazol-3-yl)butan-2-yl]phenyl}pyrimidin-2-amine]	–
70 nM	1.1 nM	CC(C)C(C)(c1ccc(-c2cnc(N)c(CO)c2)cc1)c1noc(-c2cccnc2)n1 (stereo not shown) [Example 6, [2-amino-5-(4-{3-methyl-2-[5-(pyridin-3-yl)-1,2,4-oxadiazol-3-yl]butan-2-yl}phenyl)pyridin-3-yl]methanol]	–
560 nM	3.1 nM	CC(C)C(C)(c1ccc(-c2cnc(N)nc2)cc1)c1noc(-c2ccc(Cl)nc2)n1 (stereo not shown) [Example 7, 5-(4-{2-[5-(6-chloropyridin-3-yl)-1,2,4-oxadiazol-3-yl]-3-methylbutan-2-yl}phenyl)pyrimidin-2-amine]	–
530 nM	3.8 nM	COc1ccc(-c2nc(C(C)(c3ccc(-c4cnc(N)nc4)cc3)C(C)C)no2)cn1 (stereo not shown) [Example 8, 5-(4-{2-[5-(6-methoxypyridin-3-yl)-1,2,4-oxadiazol-3-yl]-3-methylbutan-2-yl}phenyl)pyrimidin-2-amine]	–
210 nM	2.9 nM	CC(C)C(C)(c1ccc(-c2cnc(N)nc2)cc1)c1noc(-c2ccc(=O)[nH]c2)n1 (stereo not shown) [Example 9, 5-(3-{2-[4-(2-aminopyrimidin-5-yl)phenyl]-3-methylbutan-2-yl}-1,2,4-oxadiazol-5-yl)pyridin-2(1H)-one]	–
–	4.3 nM	COc1ncccc1-c1nc(C(C)(c2ccc(-c3cnc(N)nc3)cc2)C(C)C)no1 (stereo not shown) [Example 10, 5-(4-{2-[5-(2-methoxypyridin-3-yl)-1,2,4-oxadiazol-3-yl]-3-methylbutan-2-yl}phenyl)pyrimidin-2-amine]	–
290 nM	3.3 nM	CC(C)C(C)(c1ccc(-c2cnc(N)nc2)cc1)c1noc(-c2ccc[nH]c2=O)n1 (stereo not shown) [Example 12, 3-(3-{2-[4-(2-aminopyrimidin-5-yl)phenyl]-3-methylbutan-2-yl}-1,2,4-oxadiazol-5-yl)pyridin-2(1H)-one]	–
460 nM	3.6 nM	COc1cncc(-c2nc(C(C)(c3ccc(-c4cnc(N)nc4)cc3)C(C)C)no2)c1 (stereo not shown) [Example 13, 5-(4-{2-[5-(5-methoxypyridin-3-yl)-1,2,4-oxadiazol-3-yl]-3-methylbutan-2-yl}phenyl)pyrimidin-2-amine]	–
140 nM	4.6 nM	CC(C)C(C)(c1ccc(-c2cnc(N)nc2)cc1)c1noc(-c2ccn(C)n2)n1 (stereo not shown) [Example 14, 5-(4-{3-methyl-2-[5-(1-methyl-1H-pyrazol-3-yl)-1,2,4-oxadiazol-3-yl]butan-2-yl}phenyl)pyrimidin-2-amine]	–
–	8.7 nM	Cc1csc(-c2nc(C(C)(c3ccc(-c4cnc(N)nc4)cc3)C(C)C)no2)n1 (stereo not shown) [Example 131, 5-(4-{3-methyl-2-[5-(4-methyl-1,3-thiazol-2-yl)-1,2,4-oxadiazol-3-yl]butan-2-yl}phenyl)pyrimidin-2-amine]	–
–	58 nM	CC(C)C(C)(c1ccc(-c2cnc(N)nc2)cc1)c1noc(-c2ccccc2S(C)(=O)=O)n1 (stereo not shown) [Example 149, 5-[4-(3-methyl-2-{5-[2-(methylsulfonyl)phenyl]-1,2,4-oxadiazol-3-yl}butan-2-yl)phenyl]pyrimidin-2-amine]	–
–	15 nM	CC(C)C(C)(c1ccc(-c2cnc(N)nc2)cc1)c1noc(C2CC2)n1 (stereo not shown) [Example 156, 5-{4-[2-(5-cyclopropyl-1,2,4-oxadiazol-3-yl)-3-methylbutan-2-yl]phenyl}pyrimidin-2-amine]	–
550 nM	–	CC(C)[C@@](C)(c1ccc(-c2cnc(N)nc2)cc1)c1noc(N2CCC(C)(O)CC2)n1 [Example 228, 1-(3-{(S)-1-[4-(2-Amino-pyrimidin-5-yl)-phenyl]-1,2-dimethyl-propyl}-[1,2,4]oxadiazol-5-yl)-4-methyl-piperidin-4-ol]	–
1000 nM	–	C[C@](c1ccc(-c2cnc(N)nc2)cc1)(c1noc(N2CCC(O)CC2)n1)C1CC1 [Example 234, 1-(3-{(S)-1-[4-(2-Amino-pyrimidin-5-yl)-phenyl]-1-cyclopropyl-ethyl}-[1,2,4]oxadiazol-5-yl)-piperidin-4-ol]	–
